Measured values published in patent publication US7169414B2, “Antimicrobial agents isolated from aloe vera” (priority 1998, dated 2007).

Tested on: bacterial growth
Assay: culture killing assays of known Aloe components
Type: cell-based
Settings: purified extracts of known Aloe components
Procedure: Previously isolated and identified individual aloe products as antimicrobial products were studied to confirm that these compounds were not responsible for the anti-bacterial activity identified herein. Purified extracts of several known Aloe components were provided by Dr. I. Danhoff, including: Albarin, Awbarin, Anthraquinone, Aloin A, Aloin A & B, Aloe emodin, and Yellow sap components were tested in like assays.

SMILES	inhibition of bacterial growth
O=C1c2c(O)cccc2C([C@@H]2O[C@H](CO)[C@@H](O)[C@H](O)[C@H]2O)c2cc(CO)cc(O)c21 (some centres unmarked) [Aloin A]	showed any inhibition of bacterial growth
O=C1c2ccccc2C(=O)c2ccccc21 [Anthraquinone]	only Aloin A and Aloe emodin showed any inhibition of bacterial growth
